Data published in patent EP0082501A1, “Beta-lactam compound and a pharmaceutical composition containing the same” (KYOWA HAKKO KOGYO CO., LTD, priority 1981, dated 1983).
In brackets after ≈: the same amount, converted by molar mass.

Legend:
Test in all cases: Antibacterial effect, dilution method on Mueller-Hinton agar (MIC)
Assay type in all cases: cell-based
[1] = tested on: Staphilococcus aureus 209-P
[2] = tested on: Escherichia coli NIHJ C-2; conditions: NIHJC2
[3] = tested on: Krebsiella pneumoniae 8045
Serratia marcescens T-26 = conditions: T26
Proteus vulgaris 6897 = tested on: Proteus vulgaris 6897
Proteus morganii 4298 = conditions: Morganella morganii
Proteus rettgeri 4289 = conditions: Providencia rettgeri
[4] = tested on: Enterobacter aerogenes F-1948; conditions: Klebsiella aerogenes, F1948
[5] = tested on: Pseudomonas aerginosa 145
[6] = tested on: Pseudomonas sepatia F-2251; conditions: F2251
[7] = tested on: Pseudomonas maltphilia F-3438; conditions: F3438

Work on `CO/N=C(\C(=O)N[C@@H]1C(=O)N2C(C(=O)O)=C[C@H](Sc3nnnn3C)C[C@H]12)c1csc(N)n1` [Ex.15, [4R,6R,7S]-7-[2-(2-amino-4-thiazolyl)-2-syn-methoxyiminoacetamido]-4-(1-methyl-1,2,3,4-tetrazol-5-yl)-thio-1-azabicyclo[4,2,0]oct-2-en-8-oxo-2-carboxylic acid] yielded an MIC [1] of 6.25 µg/mL (≈ 13 µM), an MIC [2] of 0.1 µg/mL (≈ 0.209 µM) and an MIC [3] of 0.02 µg/mL (≈ 0.0417 µM). The MIC (Serratia marcescens T-26) was 6.25 µg/mL (≈ 13 µM), the MIC (Proteus vulgaris 6897) was at most 0.01 µg/mL and the MIC (Proteus morganii 4298) was at most 0.01 µg/mL. It also gave an MIC (Proteus rettgeri 4289) of at most 0.01 µg/mL, an MIC [4] of 50 µg/mL (≈ 104 µM) and an MIC [5] of 12.5 µg/mL (≈ 26.1 µM). It also gave an MIC [6] of 25 µg/mL (≈ 52.1 µM) and an MIC [7] of over 100 µg/mL.

`CO/N=C(\C(=O)N[C@@H]1C(=O)N2C(C(=O)O)=C[C@@H](Sc3ccncc3)C[C@H]12)c1csc(N)n1` [Ex.23, sodium [4S,6R,7S]-7-[2-(2-amino-thiazol-4-yl)-2-syn-methoxyimino]-acetamido-4-(pyridin-4-yl)-thio-1-azabicyclo[4,2,0]oct-2-en-8-oxo-2-carboxylate] was tested, and the MIC [1] was 3.13 µg/mL, the MIC [2] was 0.39 µg/mL and the MIC [3] was 0.2 µg/mL. The MIC (Serratia marcescens T-26) was 25 µg/mL, the MIC (Proteus vulgaris 6897) was at most 0.01 µg/mL and the MIC (Proteus morganii 4298) was 0.2 µg/mL. It also gave an MIC (Proteus rettgeri 4289) of 0.02 µg/mL, an MIC [4] of 50 µg/mL and an MIC [5] of 12.5 µg/mL. The MIC [6] was 12.5 µg/mL and the MIC [7] was over 100 µg/mL.

`CO/N=C(\C(=O)N[C@@H]1C(=O)N2C(C(=O)O)=C[C@@H](N=[N+]=[N-])C[C@H]12)c1csc(N)n1` [Ex.26, [4S,6R,7S]-7-[2-(2-amino-4-thiazolyl)-2-syn-methoxyiminoacetamido]-4-azido-1-azabicyclo[4,2,0]oct-2-en-8-oxo-2-carboxylic acid] gave an MIC [1] of 6.25 µg/mL (≈ 15.4 µM), an MIC [2] of 0.05 µg/mL (≈ 0.123 µM) and an MIC [3] of 0.02 µg/mL (≈ 0.0492 µM). The MIC (Serratia marcescens T-26) was 6.25 µg/mL (≈ 15.4 µM), the MIC (Proteus vulgaris 6897) was at most 0.01 µg/mL and the MIC (Proteus morganii 4298) was 0.02 µg/mL (≈ 0.0492 µM). It also gave an MIC (Proteus rettgeri 4289) of at most 0.01 µg/mL, an MIC [4] of 25 µg/mL (≈ 61.5 µM) and an MIC [5] of 12.5 µg/mL (≈ 30.8 µM). It also gave an MIC [6] of 25 µg/mL (≈ 61.5 µM) and an MIC [7] of over 100 µg/mL.

`CC(=O)Oc1ccc(C(=O)O/N=C(\C(=O)N[C@@H]2C(=O)N3C(C(=O)O)=C[C@H](N=[N+]=[N-])C[C@H]23)c2csc(N)n2)cc1OC(C)=O` [Ex. 6, [4R,6R,7S]-7-[2-(2-amino-4-thiazolyl)-2-syn-(3,4-diacetoxy)-benzoyloxyimino-acetamido]-4-azido-l-azabicyclo[4,2,0]oct-2-en-8-oxo-2-carboxylic acid] showed an MIC [1] of 3.13 µg/mL (≈ 5.11 µM), an MIC [2] of 0.05 µg/mL (≈ 0.0816 µM) and an MIC [3] of 0.02 µg/mL (≈ 0.0327 µM). For the same molecule, the MIC (Serratia marcescens T-26) was 0.05 µg/mL (≈ 0.0816 µM), the MIC (Proteus vulgaris 6897) was at most 0.01 µg/mL and the MIC (Proteus morganii 4298) was 0.05 µg/mL (≈ 0.0816 µM). For the same molecule, the MIC (Proteus rettgeri 4289) was at most 0.01 µg/mL, the MIC [4] was 3.13 µg/mL (≈ 5.11 µM) and the MIC [5] was 0.1 µg/mL (≈ 0.163 µM). For the same molecule, the MIC [6] was 0.02 µg/mL (≈ 0.0327 µM) and the MIC [7] was 25 µg/mL (≈ 40.8 µM).

Work on `CO/N=C(\C(=O)N[C@@H]1C(=O)N2C(C(=O)O)=C[C@H](Sc3nnnn3-c3ccccc3)C[C@H]12)c1csc(N)n1` [Ex. 13, [4R,6R,7S]-7-[2-(2-amino-4-thiazolyl)-2-syn-methoxyiminoacetamido]-4-(1-phenyl-1,2,3,4-tetrazol-5-yl)-thio-l-azabicyclo[4,2,0]oct-2-en-8-oxo-2-carboxylic acid] yielded an MIC [1] of 3.13 µg/mL (≈ 5.78 µM), an MIC [2] of 0.78 µg/mL (≈ 1.44 µM) and an MIC [3] of 0.39 µg/mL (≈ 0.72 µM). For the same molecule, the MIC (Serratia marcescens T-26) was 6.25 µg/mL (≈ 11.5 µM), the MIC (Proteus vulgaris 6897) was 0.02 µg/mL (≈ 0.0369 µM) and the MIC (Proteus morganii 4298) was 0.78 µg/mL (≈ 1.44 µM). For the same molecule, the MIC (Proteus rettgeri 4289) was 0.2 µg/mL (≈ 0.369 µM), the MIC [4] was 50 µg/mL (≈ 92.3 µM) and the MIC [5] was 12.5 µg/mL (≈ 23.1 µM). It also gave an MIC [6] of 25 µg/mL (≈ 46.2 µM) and an MIC [7] of over 100 µg/mL.

For `CO/N=C(\C(=O)N[C@@H]1C(=O)N2C(C(=O)O)=C[C@H](N=[N+]=[N-])C[C@H]12)c1csc(N)n1` [Exs. 5 and 17, [4R, 6R, 7S]-7-[2-(2-amino-4-thiazolyl)-2-syn-methoxyiminoacetamido]-4-azido-1-azabicyclo [4,2,0]oct-2-en-8-oxo-2-carboxylic acid], the MIC [1] was 1.56 µg/mL (≈ 3.84 µM), the MIC [2] was 0.1 µg/mL (≈ 0.246 µM) and the MIC [3] was 0.02 µg/mL (≈ 0.0492 µM). The MIC (Serratia marcescens T-26) was 6.25 µg/mL (≈ 15.4 µM), the MIC (Proteus morganii 4298) was at most 0.01 µg/mL and the MIC [4] was 25 µg/mL (≈ 61.5 µM). For the same molecule, the MIC [5] was 6.25 µg/mL (≈ 15.4 µM), the MIC [6] was 12.5 µg/mL (≈ 30.8 µM) and the MIC [7] was over 100 µg/mL.
